Experimental data published in patent US4459290A, “C-23-Modified derivatives of OMT, pharmaceutical compositions and method of use” (priority 1982, dated 1984).
≈ marks a conversion by molar mass, not a printed value. Like-named read-outs stand apart in the source and are kept apart here.

Columns and labels:
[1] = test system: Klebsiella pneumoniae KAE; experiment: MIC, standard agar-dilution assay (Table V); assay type: cell-based; conditions: K. pneumoniae KAE, agar dilution
Experimental: (§1) Especially noteworthy is the improved activity against gram-negative bacteria for several derivatives when compared to the activity of OMT. […] The MIC's in Tables V and VI were determined by standard agar-dilution assays. The MIC's in Table VII were obtained using a conventional broth-dilution microtiter test.

[2] = test system: Staphylococcus aureus V41; experiment: MIC, standard agar-dilution assay (Table V); assay type: cell-based
Experimental: as §1

Escherichia coli EC14 = experiment: MIC, standard agar-dilution assay (Table V); assay type: cell-based; conditions: E. coli EC14, agar dilution
Experimental: as §1

[3] = test system: Streptococcus Group D X66; experiment: MIC, standard agar-dilution assay (Table V); assay type: cell-based
Experimental: as §1

[4] = test system: Staphylococcus epidermidis EPI2; experiment: MIC, standard agar-dilution assay (Table V); assay type: cell-based
Experimental: as §1

[5] = test system: Staphylococcus epidermidis EPI1; experiment: MIC, standard agar-dilution assay (Table V); assay type: cell-based
Experimental: as §1

[6] = test system: Staphylococcus aureus X400; experiment: MIC, standard agar-dilution assay (Table V); assay type: cell-based
Experimental: as §1

[7] = test system: Klebsiella pneumoniae X26; experiment: MIC, standard agar-dilution assay (Table V); assay type: cell-based; conditions: K. pneumoniae X26, agar dilution
Experimental: as §1

Streptococcus Group 9960 = experiment: MIC, standard agar-dilution assay (Table V); assay type: cell-based
Experimental: as §1

[8] = test system: Staphylococcus aureus S13E; experiment: MIC, standard agar-dilution assay (Table V); assay type: cell-based
Experimental: as §1

Escherichia coli N10 = experiment: MIC, standard agar-dilution assay (Table V); assay type: cell-based; conditions: E. coli N10, agar dilution
Experimental: as §1

[9] = test system: Staphylococcus aureus X1.1; experiment: MIC, standard agar-dilution assay (Table V); assay type: cell-based
Experimental: as §1

Escherichia coli TEM = experiment: MIC, standard agar-dilution assay (Table V); assay type: cell-based; conditions: E. coli TEM, agar dilution
Experimental: (§2) The MIC's in Tables V and VI were determined by standard agar-dilution assays. The MIC's in Table VII were obtained using a conventional broth-dilution microtiter test.

[10] = test system: Haemophilus influenzae Holt; experiment: MIC, standard agar-dilution assay (Table V); assay type: cell-based
Experimental: as §2

[11] = test system: Streptococcus pyogenes C203; experiment: MIC, standard agar-dilution assay (Table V); assay type: cell-based
Experimental: as §2

[12] = test system: Haemophilus influenzae R252; experiment: MIC, standard agar-dilution assay (Table V); assay type: cell-based
Experimental: as §2

Pasteurella multocida = experiment: Protection of one-day-old chicks against Pasteurella multocida infection (Table IX); assay type: in vivo; conditions: subcutaneous 30 mg/kg × 2, 1 and 4 hours post-challenge
Experimental: The C-23 modified derivatives of OMT have also shown in vivo antibacterial activity against infections induced by gram-negative bacteria. Table IX summarizes the results of tests in which illustrative compounds were evaluated against Pasteurella infections in one-day-old chicks. The compounds were administered by subcutaneous injection at a dosage of 30 mg/kg, 1 and 4 hours post-challenge of the chicks with Pasteurella multocida (0.1 ml of a twenty-hour tryptose broth culture of an avian P. multocida given subcutaneously). In the tests, all ten non-medicated infected chicks died within 24 hours of Pasteurella challenge.

[13] = test system: Streptococcus pneumoniae Park I; experiment: microbe, parasite or virus in culture; assay type: cell-based
Experimental: as §1

[14] = test system: Pasteurella hemolytica 41D; experiment: MIC, broth-dilution microtiter test (Table VII); assay type: cell-based; conditions: P. hemolytica 41D
Experimental: as §1

[15] = test system: Pasteurella multocida 60A; experiment: MIC, broth-dilution microtiter test (Table VII); assay type: cell-based
Experimental: as §1

[16] = test system: Pasteurella multocida 40G; experiment: MIC, broth-dilution microtiter test (Table VII); assay type: cell-based
Experimental: as §1

[17] = test system: Pasteurella multocida 17E; experiment: MIC, broth-dilution microtiter test (Table VII); assay type: cell-based
Experimental: as §1

Mycoplasma synoviae = experiment: MIC, broth-dilution microtiter test (Table VII); assay type: cell-based
Experimental: as §1

Staphylococcus aureus = experiment: MIC, broth-dilution microtiter test (Table VII); assay type: cell-based
Experimental: as §1

[18] = test system: Pasteurella multocida 22A; experiment: MIC, broth-dilution microtiter test (Table VII); assay type: cell-based
Experimental: as §1

Mycoplasma hyorhinis = experiment: MIC, broth-dilution microtiter test (Table VII); assay type: cell-based; conditions: M. hyorhinis, broth-dilution microtiter
Experimental: as §1

[19] = test system: Pasteurella hemolytica 23C; experiment: MIC, broth-dilution microtiter test (Table VII); assay type: cell-based; conditions: P. hemolytica 23C
Experimental: as §1

[20] = test system: Pasteurella hemolytica 22C; experiment: MIC, broth-dilution microtiter test (Table VII); assay type: cell-based; conditions: P. hemolytica 22C
Experimental: as §1

[21] = test system: Pasteurella multocida 68C; experiment: MIC, broth-dilution microtiter test (Table VII); assay type: cell-based; conditions: P. multocida 68C, broth-dilution microtiter
Experimental: as §1

Mycoplasma gallisepticum = experiment: MIC, broth-dilution microtiter test (Table VII); assay type: cell-based
Experimental: as §1

Streptococcus sp. 80 = experiment: MIC, broth-dilution microtiter test (Table VII); assay type: cell-based
Experimental: as §1

Shigella sonnei N9 = experiment: MIC, standard agar-dilution assay (Table V); assay type: cell-based
Experimental: as §1

[22] = S. aureus V41, penicillin-resistant strain, agar dilution
[23] = Streptococcus Group D X66, agar dilution
[24] = S. epidermidis EPI2, agar dilution
[25] = S. epidermidis EPI1, agar dilution
[26] = S. aureus X400, methicillin-resistant strain, agar dilution
[27] = Streptococcus Group 9960, agar dilution
[28] = H. influenzae Holt, ampicillin-sensitive strain, agar dilution
[29] = S. pyogenes C203, agar dilution
[30] = H. influenzae R252, ampicillin-resistant strain, agar dilution
[31] = S. pneumoniae Park I, agar dilution
[32] = P. multocida 60A, avian isolate, broth-dilution microtiter
[33] = P. multocida 40G, broth-dilution microtiter
[34] = P. multocida 17E, bovine isolate, broth-dilution microtiter
[35] = M. synoviae, broth-dilution microtiter
[36] = S. aureus, broth-dilution microtiter
[37] = P. multocida 22A, broth-dilution microtiter
[38] = M. gallisepticum, broth-dilution microtiter
[39] = Streptococcus sp. 80, broth-dilution microtiter
[40] = Klebsiella pneumoniae, read-out: MIC
[41] = Escherichia coli, read-out: MIC

CCC1OC(=O)CC(O)C(C)C(OC2OC(C)C(O)C(N(C)C)C2O)C(CC=O)CC(C)C(=O)C=CC(C)=CC1CNC(=O)CNC(=O)C(C)N (stereo not drawn) [Compound 14]
MIC [1]: -- (MIC ≥ 128)
MIC [2, 22]: 64 mg/L (≈ 88.3 µM)
MIC (Escherichia coli EC14): -- (MIC ≥ 128)
MIC [3, 23]: 64 mg/L (≈ 88.3 µM)
MIC [4, 24]: 64 mg/L (≈ 88.3 µM)
MIC [5, 25]: 64 mg/L (≈ 88.3 µM)
MIC [6, 26]: 128 mg/L (≈ 177 µM)
MIC [7]: -- (MIC ≥ 128)
MIC (Streptococcus Group 9960; [27]): 64 mg/L (≈ 88.3 µM)
MIC ([8]; S. aureus S13E, agar dilution): 64 mg/L (≈ 88.3 µM)
MIC (Escherichia coli N10): -- (MIC ≥ 128)
MIC ([9]; S. aureus X1.1, agar dilution): 64 mg/L (≈ 88.3 µM)
MIC (Escherichia coli TEM): -- (MIC ≥ 128)
MIC [10, 28]: -- (MIC ≥ 128)
MIC [11, 29]: 16 mg/L (≈ 22.1 µM)
MIC [12, 30]: -- (MIC ≥ 128)
Number of deaths/number treated (Pasteurella multocida): 10/10
MIC [13, 31]: 16 mg/L (≈ 22.1 µM)
MIC [14]: > 50 mg/L
MIC [15, 32]: > 50 mg/L
MIC [16, 33]: > 50 mg/L
MIC [17, 34]: > 50 mg/L
MIC (Mycoplasma synoviae; [35]): 6.25 mg/L (≈ 8.62 µM)
MIC (Staphylococcus aureus; [36]): > 50 mg/L
MIC [18, 37]: > 50 mg/L
MIC (Mycoplasma hyorhinis): 50 mg/L (≈ 69 µM)
MIC [19]: > 50 mg/L
MIC [20]: > 50 mg/L
MIC [21]: > 50 mg/L
MIC (Mycoplasma gallisepticum; [38]): 12.5 mg/L (≈ 17.2 µM)
MIC (Streptococcus sp. 80; [39]): 25 mg/L (≈ 34.5 µM)

CCC1OC(=O)CC(O)C(C)C(OC2OC(C)C(O)C(N(C)C)C2O)C(CC=O)CC(C)C(=O)C=CC(C)=CC1CNC(=O)CNC(=O)C(C)NC(=O)OC(C)(C)C (stereo not drawn) [Compound 13]
MIC [1]: -- (MIC ≥ 128)
MIC [2, 22]: 32 mg/L (≈ 38.8 µM)
MIC (Escherichia coli EC14): -- (MIC ≥ 128)
MIC [3, 23]: 32 mg/L (≈ 38.8 µM)
MIC [4, 24]: 32 mg/L (≈ 38.8 µM)
MIC [5, 25]: 16 mg/L (≈ 19.4 µM)
MIC [6, 26]: 32 mg/L (≈ 38.8 µM)
MIC [7]: -- (MIC ≥ 128)
MIC (Streptococcus Group 9960; [27]): 32 mg/L (≈ 38.8 µM)
MIC ([8]; S. aureus S13E, agar dilution): 32 mg/L (≈ 38.8 µM)
MIC (Escherichia coli N10): -- (MIC ≥ 128)
MIC ([9]; S. aureus X1.1, agar dilution): 16 mg/L (≈ 19.4 µM)
MIC (Escherichia coli TEM): -- (MIC ≥ 128)
MIC [10, 28]: 64 mg/L (≈ 77.6 µM)
MIC [11, 29]: 4 mg/L (≈ 4.85 µM)
MIC [12, 30]: 64 mg/L (≈ 77.6 µM)
Number of deaths/number treated (Pasteurella multocida): 7/10
MIC [13, 31]: 4 mg/L (≈ 4.85 µM)
MIC [14]: > 50 mg/L
MIC [15, 32]: 50 mg/L (≈ 60.6 µM)
MIC [16, 33]: 50 mg/L (≈ 60.6 µM)
MIC [17, 34]: 50 mg/L (≈ 60.6 µM)
MIC (Mycoplasma synoviae; [35]): 12.5 mg/L (≈ 15.2 µM)
MIC (Staphylococcus aureus; [36]): 25 mg/L (≈ 30.3 µM)
MIC [18, 37]: > 50 mg/L
MIC (Mycoplasma hyorhinis): 50 mg/L (≈ 60.6 µM)
MIC [19]: > 50 mg/L
MIC [20]: > 50 mg/L
MIC [21]: 50 mg/L (≈ 60.6 µM)
MIC (Mycoplasma gallisepticum; [38]): 6.25 mg/L (≈ 7.58 µM)
MIC (Streptococcus sp. 80; [39]): 6.25 mg/L (≈ 7.58 µM)

CCC1OC(=O)CC(O)C(C)C(OC2OC(C)C(O)C(N(C)C)C2O)C(CC=O)CC(C)C(=O)C=CC(C)(OCCc2ccccc2)C2CC12 (stereo not drawn) [Compound 18]
MIC [1, 40]: > 128 mg/L
MIC ([2]; Staphylococcus aureus, V41): 2 mg/L (≈ 2.85 µM)
MIC (Shigella sonnei N9): > 128 mg/L
MIC (Escherichia coli EC14; [41]): > 128 mg/L
MIC [3]: 1 mg/L (≈ 1.42 µM)
MIC ([4]; Staphylococcus epidermidis, EPI2): 2 mg/L (≈ 2.85 µM)
MIC ([5]; Staphylococcus epidermidis, EPI1): 1 mg/L (≈ 1.42 µM)
MIC ([6]; Staphylococcus aureus, X400): 2 mg/L (≈ 2.85 µM)
MIC [7, 40]: 16 mg/L (≈ 22.8 µM)
MIC (Streptococcus Group 9960; GROUP9960): 2 mg/L (≈ 2.85 µM)
MIC ([8]; Staphylococcus aureus, S13E): 1 mg/L (≈ 1.42 µM)
MIC (Escherichia coli N10; [41]): > 128 mg/L
MIC ([9]; Staphylococcus aureus, X1.1): 1 mg/L (≈ 1.42 µM)
MIC (Escherichia coli TEM; [41]): 64 mg/L (≈ 91.2 µM)
MIC ([10]; Haemophilus influenzae): 8 mg/L (≈ 11.4 µM)
MIC ([11]; Streptococcus pyogenes, C203): 1 mg/L (≈ 1.42 µM)
MIC ([12]; Haemophilus influenzae, R252): 8 mg/L (≈ 11.4 µM)
MIC ([13]; Streptococcus pneumoniae): 0.25 mg/L (≈ 0.356 µM)
MIC ([14]; Pasteurella, read-out: MIC): 25 mg/L (≈ 35.6 µM)
MIC ([15]; Pasteurella multocida, 60A): 12.5 mg/L (≈ 17.8 µM)
MIC ([16]; Pasteurella multocida, 40G): 12.5 mg/L (≈ 17.8 µM)
MIC ([17]; Pasteurella multocida, 17E): 12.5 mg/L (≈ 17.8 µM)
MIC (Mycoplasma synoviae; Mycoplasmopsis synoviae): 3.12 mg/L (≈ 4.45 µM)
MIC (Staphylococcus aureus; Staphylococcus aureus): 6.25 mg/L (≈ 8.9 µM)
MIC ([18]; Pasteurella multocida, 22A): 12.5 mg/L (≈ 17.8 µM)
MIC (Mycoplasma hyorhinis; read-out: MIC): 25 mg/L (≈ 35.6 µM)
MIC ([19]; Pasteurella, read-out: MIC): 25 mg/L (≈ 35.6 µM)
MIC ([20]; Pasteurella, read-out: MIC): 25 mg/L (≈ 35.6 µM)
MIC ([21]; Pasteurella multocida, read-out: MIC): 25 mg/L (≈ 35.6 µM)
MIC (Mycoplasma gallisepticum; Mycoplasmoides gallisepticum): 1.56 mg/L (≈ 2.22 µM)
MIC (Streptococcus sp. 80; Streptococcus, SP.80): 1.56 mg/L (≈ 2.22 µM)
